Among the data in PubChem BioAssay AID248 (DTP/NCI, 2004) are T/C values, retold here.

For this experiment, the system named is L1210 leukemia ip in BDF1 mice, survival T/C. Briefly: NCI In Vivo Anticancer Drug Screen. Data for tumor model L1210 Leukemia (intraperitoneal) in B6D2F1 (BDF1) mice. The following applies: endpoint: mean survival time, higher = longer survival. The essentials:
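Survival endpoint. Drug-treated group vs vehicle group, expressed as T divided by C. Tumor passaged by transplantation.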

Setting [1] is: dose: 100.0 mg/kg/injection, schedule: Q04DX002 (ip), vehicle: Klucel (hydroxypropylcellulose) (HPC).
The mark [2] stands for this setting: dose: 200.0 mg/kg/injection, schedule: Q04DX002 (ip), vehicle: Klucel (hydroxypropylcellulose) (HPC).

Each structure is given as a SMILES string. Several values for one entry are separate records, joined by “and”; a condition that tells them apart may be missing. Equal values may be shown once. Toxic doses and inconclusive results are not listed.

For `CC1CN1CC(O)C(O)CN1CC1C` (centres undefined), the T/C runs as follows: (dose: 0.07 mg/kg/injection, schedule: Q01DX Z (ip), vehicle: saline) 101 % of control; (dose: 0.07 mg/kg/injection, schedule: Q01DX Z (ip), vehicle: water) 108 % of control; (dose: 0.1 mg/kg/injection, schedule: Q01DX Z (ip), vehicle: saline) 106 % of control; (dose: 0.1 mg/kg/injection, schedule: Q01DX Z (ip), vehicle: water) 110 % of control; (dose: 0.15 mg/kg/injection, schedule: Q01DX Z (ip), vehicle: saline) 106 % of control and 110 % of control; (dose: 0.15 mg/kg/injection, schedule: Q01DX Z (ip), vehicle: water) 118 % of control. Further, the T/C (dose: 0.22 mg/kg/injection, schedule: Q01DX Z (ip), vehicle: saline) is 104 % of control and 114 % of control; the T/C (dose: 0.22 mg/kg/injection, schedule: Q01DX Z (ip), vehicle: water) is 124 % of control; the T/C (dose: 0.26 mg/kg/injection, schedule: Q01DX009 (ip), vehicle: saline) is 160 % of control; the T/C (dose: 0.26 mg/kg/injection, schedule: Q04DX003 (ip), vehicle: saline) was 117 % of control; the T/C (dose: 0.31 mg/kg/injection, schedule: Q01DX001 (ip), vehicle: carboxymethylcellulose (CMC)) is 105 % of control; the T/C (dose: 0.33 mg/kg/injection, schedule: Q01DX015 (ip), vehicle: saline) was 165 % of control. Besides, the T/C (dose: 0.33 mg/kg/injection, schedule: Q01DX Z (ip), vehicle: saline) is 121 % of control; the T/C (dose: 0.4 mg/kg/injection, schedule: Q01DX009 (ip), vehicle: saline) was 152 % of control; the T/C (dose: 0.5 mg/kg/injection, schedule: Q01DX001 (ip), vehicle: saline) is 108 % of control; the T/C (dose: 0.5 mg/kg/injection, schedule: Q01DX015 (ip), vehicle: saline) was 117 % of control; the T/C (dose: 0.6 mg/kg/injection, schedule: Q01DX015 (ip), vehicle: saline) was 163 % of control; the T/C (dose: 0.62 mg/kg/injection, schedule: Q01DX001 (ip), vehicle: carboxymethylcellulose (CMC)) is 121 % of control. In addition, the T/C is, setting by setting: (dose: 1.0 mg/kg/injection, schedule: Q01DX001 (ip), vehicle: saline) 113 % of control; (dose: 1.0 mg/kg/injection, schedule: Q01DX015 (ip), vehicle: saline) 153 % of control and 207 % of control; (dose: 1.25 mg/kg/injection, schedule: Q01DX001 (ip), vehicle: carboxymethylcellulose (CMC)) 121 % of control; (dose: 1.4 mg/kg/injection, schedule: Q04DX003 (ip), vehicle: saline) 153 % of control; (dose: 1.8 mg/kg/injection, schedule: Q01DX015 (ip), vehicle: saline) 97 % of control and 116 % of control; (dose: 2.0 mg/kg/injection, schedule: Q01DX015 (ip), vehicle: saline) 207 % of control and 221 % of control. Moreover, the T/C reads like this: (dose: 2.1 mg/kg/injection, schedule: Q04DX003 (ip), vehicle: saline) 166 % of control; (dose: 2.5 mg/kg/injection, schedule: Q01DX001 (ip), vehicle: carboxymethylcellulose (CMC)) 150 % of control; (dose: 2.5 mg/kg/injection, schedule: Q01DX001 (ip), vehicle: saline) 152 % of control; (dose: 3.0 mg/kg/injection, schedule: Q01DX001 (ip), vehicle: saline) 102 % of control; (dose: 3.0 mg/kg/injection, schedule: Q01DX015 (ip), vehicle: saline) 261 % of control; (dose: 3.3 mg/kg/injection, schedule: Q04DX003 (ip), vehicle: saline) 160 % of control. Also, the T/C is, setting by setting: (dose: 4.0 mg/kg/injection, schedule: Q01DX001 (ip), vehicle: saline) 157 % of control; (dose: 4.0 mg/kg/injection, schedule: Q01DX015 (ip), vehicle: saline) 166 % of control; (dose: 5.0 mg/kg/injection, schedule: Q01DX001 (ip), vehicle: carboxymethylcellulose (CMC)) 152 % of control; (dose: 5.0 mg/kg/injection, schedule: Q01DX001 (ip), vehicle: saline) 158 % of control; (dose: 5.5 mg/kg/injection, schedule: Q01DX001 (ip), vehicle: saline) 157 % of control; (dose: 7.5 mg/kg/injection, schedule: Q04DX003 (ip), vehicle: saline) 95 % of control and 257 % of control. The T/C was 122 % of control and 86 % of control and 87 % of control (dose: 8.0 mg/kg/injection, schedule: Q01DX015 (ip), vehicle: saline); 236 % of control (dose: 10.0 mg/kg/injection, schedule: Q01DX001 (ip), vehicle: carboxymethylcellulose (CMC)); 210 % of control (dose: 10.0 mg/kg/injection, schedule: Q01DX001 (ip), vehicle: saline); 247 % of control and 108 % of control and 116 % of control (dose: 11.0 mg/kg/injection, schedule: Q01DX001 (ip), vehicle: saline); 250 % of control (dose: 15.0 mg/kg/injection, schedule: Q01DX001 (ip), vehicle: saline); 91 % of control (dose: 20.0 mg/kg/injection, schedule: Q01DX001 (ip), vehicle: saline). Besides, the T/C (dose: 22.0 mg/kg/injection, schedule: Q01DX001 (ip), vehicle: saline) was 168 % of control; the T/C (dose: 25.0 mg/kg/injection, schedule: Q01DX001 (ip), vehicle: saline) is 120 % of control; the T/C (dose: 30.0 mg/kg/injection, schedule: Q01DX001 (ip), vehicle: saline) was 87 % of control; the T/C (dose: 41.0 micrograms/kg/injection, schedule: Q01DX015 (ip), vehicle: saline) is 104 % of control; the T/C (dose: 50.0 micrograms/kg/injection, schedule: Q01DX009 (ip), vehicle: saline) was 101 % of control; the T/C (dose: 62.0 micrograms/kg/injection, schedule: Q01DX015 (ip), vehicle: saline) is 108 % of control. In addition, the T/C (dose: 75.0 micrograms/kg/injection, schedule: Q01DX009 (ip), vehicle: saline) was 104 % of control; the T/C (dose: 113.0 micrograms/kg/injection, schedule: Q01DX009 (ip), vehicle: saline) was 110 % of control; the T/C (dose: 140.0 micrograms/kg/injection, schedule: Q01DX001 (ip), vehicle: saline) is 113 % of control; the T/C (dose: 210.0 micrograms/kg/injection, schedule: Q01DX001 (ip), vehicle: saline) was 120 % of control.

Turning to `O=Cc1ccc(OCc2ccccc2)cc1`, the T/C was 96 % of control under setting [1]; 96 % of control under setting [2]; 92 % of control (dose: 400.0 mg/kg/injection, schedule: Q04DX002 (ip), vehicle: Klucel (hydroxypropylcellulose) (HPC)).

As for `c1ccc2c(c1)C1CC(N3CCCCC3)C2c2ccccc21` (centres undefined), the T/C was 102 % of control (dose: 100.0 mg/kg/injection, schedule: Q01DX009 (ip), vehicle: saline); 95 % of control (dose: 100.0 mg/kg/injection, schedule: Q04DX003 (ip), vehicle: alcohol); 95 % of control (dose: 200.0 mg/kg/injection, schedule: Q04DX003 (ip), vehicle: alcohol); 100 % of control (dose: 400.0 mg/kg/injection, schedule: Q01DX009 (ip), vehicle: saline); 93 % of control (dose: 400.0 mg/kg/injection, schedule: Q04DX003 (ip), vehicle: alcohol).

With `NNC(=O)CNc1ccc(Br)cc1`, the T/C was 112 % of control under setting [1] and 106 % of control under setting [2].

As to `COC(=O)C1CC(C2c3ccccc3-c3ccccc32)CCC1N` (centres undefined), the T/C (dose: 200.0 mg/kg/injection, schedule: Q04DX003 (ip), vehicle: saline with Tween-80) was 100 % of control.

Turning to `Nc1nc(Cl)c(N=Nc2ccccc2)c(=O)[nH]1`, the T/C runs as follows: (dose: 25.0 mg/kg/injection, schedule: Q01DX009 (ip), vehicle: carboxymethylcellulose (CMC)) 97 % of control and 98 % of control; (dose: 50.0 mg/kg/injection, schedule: Q01DX009 (ip), vehicle: carboxymethylcellulose (CMC)) 93 % of control and 90 % of control; (dose: 100.0 mg/kg/injection, schedule: Q01DX001 (ip), vehicle: carboxymethylcellulose (CMC)) 95 % of control and 102 % of control; (dose: 100.0 mg/kg/injection, schedule: Q04DX002 (ip), vehicle: carboxymethylcellulose (CMC)) 97 % of control and 89 % of control; (dose: 100.0 mg/kg/injection, schedule: Q04DX003 (ip), vehicle: carboxymethylcellulose (CMC)) 100 % of control and 108 % of control; (dose: 200.0 mg/kg/injection, schedule: Q01DX001 (ip), vehicle: carboxymethylcellulose (CMC)) 98 % of control and 109 % of control. The T/C is 93 % of control (dose: 200.0 mg/kg/injection, schedule: Q04DX002 (ip), vehicle: carboxymethylcellulose (CMC)); 106 % of control and 113 % of control (dose: 200.0 mg/kg/injection, schedule: Q04DX003 (ip), vehicle: carboxymethylcellulose (CMC)); 95 % of control and 98 % of control (dose: 400.0 mg/kg/injection, schedule: Q01DX001 (ip), vehicle: carboxymethylcellulose (CMC)); 93 % of control and 98 % of control (dose: 400.0 mg/kg/injection, schedule: Q04DX002 (ip), vehicle: carboxymethylcellulose (CMC)); 100 % of control and 106 % of control (dose: 400.0 mg/kg/injection, schedule: Q04DX003 (ip), vehicle: carboxymethylcellulose (CMC)).
